Legend:
[1] = test system: beta cells; experiment: Beta cell apoptosis with increasing neratinib concentrations (FIG. 3); assay type: cell-based; conditions: increasing concentrations of neratinib
[2] = test system: human islets; experiment: High glucose/palmitate induced apoptotic activity in human islets; conditions: high glucose and palmitate (HG/Pal), 25 μM neratinib, FIG. 8
Excerpt: Freshly isolated human islets from a single donor were exposed to high glucose and palmitate (HG/Pal) to induce apoptosis.

CCOc1cc2ncc(C#N)c(Nc3ccc(OCc4ccccn4)c(Cl)c3)c2cc1NC(=O)/C=C/CN(C)C [neratinib]
Beta cell apoptosis [1]: decrease with exposure to increasing concentrations
MST1 phosphorylation (pMST1) [2]: inhibited
induction of cleaved caspase 3 (Cl Casp3) [2]: inhibited

Reference: patent publication US11427560B2, “Composition and methods for inhibiting mammalian sterile 20-like kinase 1” (The Scripps Research Institute, priority 2015, dated 2022)
